Measured values: US20110039721A1, “METHOD FOR PREDICTION ABOUT CARCINOGENICITY OF SUBSTANCE IN RODENT” (Chemicals Evaluation and Research Institute, priority 2007, published 2011)

How the values were obtained:
[1] = system: mRNA expressed from the genes (A) to (D) in rat liver; assay: Behavior of genes (mRNA expression level, oligo-DNA microarray) in rat liver after 28-day oral administration; assay type: in vivo; settings: for Behavior of gene caused by administration of chemical substance, Gene No. 4846 / Behavior of gene caused by administration of chemical substance, Gene No. 2026 / Behavior of gene caused by administration of chemical substance, Gene No. 4218 / Behavior of gene caused by administration of chemical substance, Gene No. 6182 / Behavior of gene caused by administration of chemical substance, Gene No. 5600: gene group (A); for Behavior of gene caused by administration of chemical substance, Gene No. 4846: Unigene No. Rn.144554; for Behavior of gene caused by administration of chemical substance, Gene No. 2026 / Behavior of gene caused by administration of chemical substance, Gene No. 4218: Unigene No. Rn.167075; for Behavior of gene caused by administration of chemical substance, Gene No. 6182: Unigene No. Rn.5834; for Behavior of gene caused by administration of chemical substance, Gene No. 5600: Unigene No. Rn.9836; for Behavior of gene caused by administration of chemical substance, Gene No. 1494 / Behavior of gene caused by administration of chemical substance, Gene No. 2045 / Behavior of gene caused by administration of chemical substance, Gene No. 2203: gene group (B); for Behavior of gene caused by administration of chemical substance, Gene No. 1494: Unigene No. Rn.1430; for Behavior of gene caused by administration of chemical substance, Gene No. 2045: Unigene No. Rn.19329; for Behavior of gene caused by administration of chemical substance, Gene No. 2203: Unigene No. Rn.21240; for Behavior of gene caused by administration of chemical substance, Gene No. 533 / Behavior of gene caused by administration of chemical substance, Gene No. 725 / Behavior of gene caused by administration of chemical substance, Gene No. 1163 / Behavior of gene caused by administration of chemical substance, Gene No. 4973 / Behavior of gene caused by administration of chemical substance, Gene No. 4095 / Behavior of gene caused by administration of chemical substance, Gene No. 1334 / Behavior of gene caused by administration of chemical substance, Gene No. 6620 / Behavior of gene caused by administration of chemical substance, Gene No. 6303 / Behavior of gene caused by administration of chemical substance, Gene No. 5878 / Behavior of gene caused by administration of chemical substance, Gene No. 1131 / Behavior of gene caused by administration of chemical substance, Gene No. 1562 / Behavior of gene caused by administration of chemical substance, Gene No. 1741 / Behavior of gene caused by administration of chemical substance, Gene No. 893 / Behavior of gene caused by administration of chemical substance, Gene No. 6026 / Behavior of gene caused by administration of chemical substance, Gene No. 154 / Behavior of gene caused by administration of chemical substance, Gene No. 1993 / Behavior of gene caused by administration of chemical substance, Gene No. 813 / Behavior of gene caused by administration of chemical substance, Gene No. 2494 / Behavior of gene caused by administration of chemical substance, Gene No. 2546 / Behavior of gene caused by administration of chemical substance, Gene No. 3776 / Behavior of gene caused by administration of chemical substance, Gene No. 3929 / Behavior of gene caused by administration of chemical substance, Gene No. 1119 / Behavior of gene caused by administration of chemical substance, Gene No. 6742 / Behavior of gene caused by administration of chemical substance, Gene No. 5634: gene group (C); for Behavior of gene caused by administration of chemical substance, Gene No. 533: Unigene No. Rn.106184; for Behavior of gene caused by administration of chemical substance, Gene No. 725: Unigene No. Rn.108075; for Behavior of gene caused by administration of chemical substance, Gene No. 1163: Unigene No. Rn.11766; for Behavior of gene caused by administration of chemical substance, Gene No. 4973: Unigene No. Rn.118529; for Behavior of gene caused by administration of chemical substance, Gene No. 4095: Unigene No. Rn.119024; for Behavior of gene caused by administration of chemical substance, Gene No. 1334 / Behavior of gene caused by administration of chemical substance, Gene No. 6620: Unigene No. Rn.120914; for Behavior of gene caused by administration of chemical substance, Gene No. 6303: Unigene No. Rn.123063; for Behavior of gene caused by administration of chemical substance, Gene No. 5878: Unigene No. Rn.143213; for Behavior of gene caused by administration of chemical substance, Gene No. 1131: Unigene No. Rn.144946; for Behavior of gene caused by administration of chemical substance, Gene No. 1562: Unigene No. Rn.14744; for Behavior of gene caused by administration of chemical substance, Gene No. 1741: Unigene No. Rn.1647; for Behavior of gene caused by administration of chemical substance, Gene No. 893: Unigene No. Rn.164817; for Behavior of gene caused by administration of chemical substance, Gene No. 6026: Unigene No. Rn.167685; for Behavior of gene caused by administration of chemical substance, Gene No. 154: Unigene No. Rn.185941; for Behavior of gene caused by administration of chemical substance, Gene No. 1993: Unigene No. Rn.18728; for Behavior of gene caused by administration of chemical substance, Gene No. 813: Unigene No. Rn.201760; for Behavior of gene caused by administration of chemical substance, Gene No. 2494: Unigene No. Rn.23969; for Behavior of gene caused by administration of chemical substance, Gene No. 2546: Unigene No. Rn.24561; for Behavior of gene caused by administration of chemical substance, Gene No. 3776: Unigene No. Rn.43232; for Behavior of gene caused by administration of chemical substance, Gene No. 3929: Unigene No. Rn.4620; for Behavior of gene caused by administration of chemical substance, Gene No. 1119: Unigene No. Rn.9757; for Behavior of gene caused by administration of chemical substance, Gene No. 6742: Unigene No. Rn.9779; for Behavior of gene caused by administration of chemical substance, Gene No. 5634: Unigene No. Rn.9862; for Behavior of gene caused by administration of chemical substance, Gene No. 5726: gene group (D), Unigene No. Rn.9939
Procedure, shortened: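 Male F344 SPF rats, 5 weeks old, four per group, received carcinogens, non-carcinogens or solvent vehicle by oral gavage once daily for 28 days. Liver total RNA was then extracted. Changes of ≥1.5-fold or ≤1/1.5 versus vehicle control, in a consistent direction across carcinogens, counted as significant.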

[2] = system: liver; settings: classification of the substance (Cr+/Cr−); cited from earlier work
[3] = system: rodent; settings: classification of the substance (C+/C−); cited from earlier work
[4] = classification of the substance (M+/M−); cited from earlier work

Compound | Behavior of gene caused by administration of chemical substance, Gene No. 4846 [1] | Behavior of gene caused by administration of chemical substance, Gene No. 2026 [1] | Behavior of gene caused by administration of chemical substance, Gene No. 4218 [1] | Behavior of gene caused by administration of chemical substance, Gene No. 6182 [1] | Behavior of gene caused by administration of chemical substance, Gene No. 5600 [1] | Behavior of gene caused by administration of chemical substance, Gene No. 1494 [1] | Behavior of gene caused by administration of chemical substance, Gene No. 2045 [1] | Behavior of gene caused by administration of chemical substance, Gene No. 2203 [1] | Behavior of gene caused by administration of chemical substance, Gene No. 533 [1] | Behavior of gene caused by administration of chemical substance, Gene No. 725 [1] | Behavior of gene caused by administration of chemical substance, Gene No. 1163 [1] | Behavior of gene caused by administration of chemical substance, Gene No. 4973 [1] | Behavior of gene caused by administration of chemical substance, Gene No. 4095 [1] | Behavior of gene caused by administration of chemical substance, Gene No. 1334 [1] | Behavior of gene caused by administration of chemical substance, Gene No. 6620 [1] | Behavior of gene caused by administration of chemical substance, Gene No. 6303 [1] | Behavior of gene caused by administration of chemical substance, Gene No. 5878 [1] | Behavior of gene caused by administration of chemical substance, Gene No. 1131 [1] | Behavior of gene caused by administration of chemical substance, Gene No. 1562 [1] | Behavior of gene caused by administration of chemical substance, Gene No. 1741 [1] | also measured
Nc1cc([N+](=O)[O-])ccc1C(=O)O [TS082, 4-Nitroanthranilic acid] | − | − | − | + | − | + | − | − | + | − | − | + | + | − | − | + | − | + | + | + | Behavior of gene caused by administration of chemical substance, Gene No. 893 [1]: +; Behavior of gene caused by administration of chemical substance, Gene No. 6026 [1]: −; Behavior of gene caused by administration of chemical substance, Gene No. 154 [1]: +; Behavior of gene caused by administration of chemical substance, Gene No. 1993 [1]: +; Behavior of gene caused by administration of chemical substance, Gene No. 813 [1]: −; Behavior of gene caused by administration of chemical substance, Gene No. 2494 [1]: −; Behavior of gene caused by administration of chemical substance, Gene No. 2546 [1]: +; Behavior of gene caused by administration of chemical substance, Gene No. 3776 [1]: +; Behavior of gene caused by administration of chemical substance, Gene No. 3929 [1]: +; Behavior of gene caused by administration of chemical substance, Gene No. 1119 [1]: +; Behavior of gene caused by administration of chemical substance, Gene No. 6742 [1]: +; Behavior of gene caused by administration of chemical substance, Gene No. 5634 [1]: +; Behavior of gene caused by administration of chemical substance, Gene No. 5726 [1]: −; Liver carcinogenicity [2]: Cr−; Carcinogenicity [3]: C−; Mutagenicity by Ames test [4]: M+
O=C([O-])c1ccccc1.[Na+] [TS084, Sodium benzoate] | − | − | − | + | − | + | − | − | + | − | − | + | − | − | − | − | − | − | − | − | Behavior of gene caused by administration of chemical substance, Gene No. 893 [1]: −; Behavior of gene caused by administration of chemical substance, Gene No. 6026 [1]: −; Behavior of gene caused by administration of chemical substance, Gene No. 154 [1]: −; Behavior of gene caused by administration of chemical substance, Gene No. 1993 [1]: −; Behavior of gene caused by administration of chemical substance, Gene No. 813 [1]: −; Behavior of gene caused by administration of chemical substance, Gene No. 2494 [1]: −; Behavior of gene caused by administration of chemical substance, Gene No. 2546 [1]: −; Behavior of gene caused by administration of chemical substance, Gene No. 3776 [1]: −; Behavior of gene caused by administration of chemical substance, Gene No. 3929 [1]: −; Behavior of gene caused by administration of chemical substance, Gene No. 1119 [1]: −; Behavior of gene caused by administration of chemical substance, Gene No. 6742 [1]: +; Behavior of gene caused by administration of chemical substance, Gene No. 5634 [1]: −; Behavior of gene caused by administration of chemical substance, Gene No. 5726 [1]: −; Liver carcinogenicity [2]: Cr−; Carcinogenicity [3]: C−; Mutagenicity by Ames test [4]: M−
